The test deals with γ-secretase (Homo sapiens, UniProt P49768). As to the kind of experiment: Screening for γ-secretase-modulating activity in SKNBE2 cells carrying APP 695 wild type (assay of Citron et al 1997). It is filed as cell-based. The following applies: SKNBE2, @ 1 uM; SKNBE2 cells carrying the APP 695 wild type. On the procedure:
Screening was carried out using SKNBE2 cells carrying the APP 695—wild type, grown in DMEM/NUT-mix F12 (HAM) provided by Gibco (cat no. 31330-38) containing 5% Serum/Fe supplemented with 1% non-essential amino acids. Cells were grown to near confluency. The screening was performed using the assay as described in Citron et al (1997) Nature Medicine 3: 67.

Inhibition data for 11 molecules are collected here from US8252935B2, “Piperidinyl and piperazinyl modulators of γ-secretase” (Janssen Pharmaceutica N.V., priority 2007, dated 2012).

For orientation: inhibition means how much of the control response was suppressed. A lower inhibition goes with little suppression. `CC(C)CC(C(=O)O)c1cc(-c2ccc(C(F)(F)F)cc2)cc(C2CC[N+](C)(C)CC2)c1` (centres unmarked) [Example 73, 2-[5-(1,1-Dimethyl-piperidin-4-yl)-4′-trifluoromethyl-biphenyl-3-yl]-4-methyl-pentanoic acid] registered an inhibition at 1 µM of 9%.

In the case of `CC(C)CC(C(=O)O)c1cc(-c2ccc(C(F)(F)F)cc2)cc(C2CCN(C3CCCCC3)CC2)c1` (centres unmarked) [Example 74, 2-[5-(1-Cyclohexyl-piperidin-4-yl)-4′-trifluoromethyl-biphenyl-3-yl]-4-methyl-pentanoic acid], 1 µM produced 4% inhibition.

As for `CC(C)CC(C(=O)O)c1cc(-c2ccc(C(F)(F)F)cc2)cc(C2CCN(Cc3cc(F)cc(F)c3)CC2)c1` (centres unmarked) [Example 75, 2-{5-[1-(3,5-Difluoro-benzyl)-piperidin-4-yl]-4′-trifluoromethyl-biphenyl-3-yl}-4-methyl-pentanoic acid], testing at 1 µM gave an inhibition of 46%.

Take `CC(C)CCN1CCC(c2cc(-c3ccc(C(F)(F)F)cc3)cc(C(CC(C)C)C(=O)O)c2)CC1` (centres unmarked) [Example 76, 4-Methyl-2-{5-[1-(3-methyl-butyl)-piperidin-4-yl]-4′-trifluoromethyl-biphenyl-3-yl}-pentanoic acid]: the inhibition at 1 µM turned out to be 11%.

On to `CC(C)CCCN1CCC(c2cc(-c3ccc(C(F)(F)F)cc3)cc(C(CC(C)C)C(=O)O)c2)CC1` (centres unmarked) [Example 77, 4-Methyl-2-{5-[1-(4-methyl-pentyl)-piperidin-4-yl]-4′-trifluoromethyl-biphenyl-3-yl}-pentanoic acid], for which the inhibition at 1 µM is 36%.

`CC(C)CC(C(=O)O)c1cc(-c2ccc(C(F)(F)F)cc2)cc(C2CCN(Cc3ccc(C(F)(F)F)cc3)CC2)c1` (centres unmarked) [Example 78, 4-Methyl-2-{4′-trifluoromethyl-5-[1-(4-trifluoromethyl-benzyl)-piperidin-4-yl]-biphenyl-3-yl}-pentanoic acid]: the inhibition at 1 µM came out at 35%.

In turn, `CC(C)CC(C(=O)O)c1cc(-c2ccc(C(F)(F)F)cc2)cc(N2CCN(c3ccc(F)c(F)c3)CC2)c1` (centres unmarked) [Example 79, 2-{5-[4-(3,4-Difluoro-phenyl)-piperazin-1-yl]-4′-trifluoromethyl-biphenyl-3-yl}-4-methyl-pentanoic acid] had an inhibition at 1 µM of 28%.

As to `CC(C)CC(C(=O)O)c1cc(-c2ccc(C(F)(F)F)cc2)cc(N2CCN(c3cccc(C(F)(F)F)c3)CC2)c1` (centres unmarked) [Example 80, 4-Methyl-2-{4′-trifluoromethyl-5-[4-(3-trifluoromethyl-phenyl)-piperazin-1-yl]-biphenyl-3-yl}-pentanoic acid], the inhibition at 1 µM is 35%.

Molecule `CC(C)CC(C(=O)O)c1cc(-c2ccc(C(F)(F)F)cc2)cc(N2CCN(c3ccc(C(F)(F)F)cc3)CC2)c1` (centres unmarked) [Example 81, 4-Methyl-2-{4′-trifluoromethyl-5-[4-(4-trifluoromethyl-phenyl)-piperazin-1-yl]-biphenyl-3-yl}-pentanoic acid] had an inhibition at 1 µM of 63%.

In turn, `CC(C)CC(C(=O)O)c1cc(-c2ccc(C(F)(F)F)cc2)cc(N2CCNCC2)c1` (centres unmarked) [Example 82, 4-Methyl-2-(5-piperazin-1-yl-4′-trifluoromethyl-biphenyl-3-yl)-pentanoic acid] displayed an inhibition at 1 µM of 5%.

For the molecule `Cc1ccccc1CC1CCCCN1c1cc(-c2ccc(C(F)(F)F)cc2)cc(C(CC(C)C)C(=O)O)c1` (centres unmarked) [Example 83, 4-Methyl-2-{5-[2-(2-methyl-benzyl)-piperidin-1-yl]-4′-trifluoromethyl-biphenyl-3-yl}-pentanoic acid], the inhibition at 1 µM is 44%.
